Patent US5130300A, “Method for enhancing growth of mammary parenchyma” (Monsanto Company, priority 1987, dated 1992)

Tests used:
[1] = test system: Quarter-Udders in Pregnant Beef Cows; assay: Intramammary infusion of hEGF or mEGF, quarter-udder weights and DNA (Examples 1-2); format: in vivo, cross-bred beef cows; conditions: 25 micrograms per infusion, days 1,3,5,7,9, Freund's emulsion
Protocol: 12 pregnant, non-lactating, cross-bred beef cows within their last 40-80 days of gestation were housed in a free-stall facility, fed a ration of alfalfa hay and pelleted concentrate, and administered 10 ml of an excipient (Freund's Incomplete Adjuvant emulsified with an equal volume of 0.9% sterile saline) into each quarter-udder by intramammary infusion through the streak canal on days 1, 3, 5, 7 and 9 of this study. Infusions were carried out using a 3.2 centimeter long, approximately 12 gauge, blunt-tipped plastic teat infusion cannula obtained from Jorgensen Laboratories, Loveland, Colo. Because front and rear udder halves are not of equal size, treatment vs. control comparisons were made between laterally opposite quarters, i.e., front right vs. front left and rear right vs. rear left. Treatments were randomly assigned to right or left udder-halves, with the contralateral half serving as its control. […] (the other 6 animals).
Prior to treatment, each animal was teatdipped for 3 consecutive days and each teat was pre-cleaned with 70% ethanol in water on the day of treatment. On day 14 the cows were sacrificed and their mammary glands excised. Each udder (milked out if necessary) was skinned, divided along the median suspensory ligament and then into front right, front left, rear right and rear left udder quarters. Each quarter-udder was ground, a representative 200 gm sample was homogenized with 4 times its volume of water, and the total homogenate volume of each was measured.
To determine dry weight of each quarter-udder, three 10 ml aliquots of a 1:5 diluted homogenate were placed in pre-weighed pans, dried overnight at 60° and then dried and weighed to a consistent value.
To determine dry fat-free tissue weight of each quarter-udder, three 5 ml aliquots of the undiluted homogenate were extracted by the method of Anderson, 41 J. Anim. Sci. 118 (1975) except that samples were placed in pre-weighed 25×150 mm glass centrifuge tubes and extracted overnight with 10 ml ethanol:ether (3:1), then centrifuged (5 min at 500 rpm) and the supernatant aspirated; an additional 10 ml aliquot of ethanol:ether was added for a second extraction; and the sample was dried under nitrogen until a consistent value was obtained.
DNA in each quarter-udder was determined by the method of Burton, 12B Methods in Enzymol. 163-66 (1968) using an assay solution of 15% trichloroacetic acid (TCA) in 2N HCl. In these determinations, aliquots of gland homogenate were diluted 1:5 with water and rehomogenized. Using triplicate 0.25 ml or 0.5 ml aliquots of these homogenates, each aliquot was mixed with 2 ml of the assay solution. After 30 min, the samples were centrifuged for 10 min at 3000 rpm and the resulting pellets were washed with 2 ml of a 10% solution of TCA in distilled water. After recentrifugation, the resulting pellets were disrupted in 2 ml of 0.5N perchloric acid and heated for 30 min at 70° to extract DNA. Samples were centrifuged and 1 ml of each resulting supernatant was placed in a 12×75 mm tube. After addition of 2 ml of a solution of 1.5 g diphenylamine and 1.5 ml H2 SO4 in 100 ml glacial acetic acid (and 0.1 ml of 1.6% aqueous acetaldehyde per 20 ml reagent just prior to use), the samples were vortexed and incubated overnight at 27°. Calf thymus DNA was the standard.

[2] = test system: Quarter-Udders in Pregnant Beef Cows; assay: Intramammary infusion of hEGF, quarter-udder weights and DNA (Examples 7-8); format: in vivo, cross-bred beef cows
Description: 24 pregnant, non-lactating, cross-bred beef cows within their last 40-80 days of gestation were randomly divided into 3 treatment groups with 8 animals in each group.

[3] = test system: Quarter-Udders in Pregnant Beef Cows; assay: Intramammary infusion of hEGF, quarter-udder weights and DNA (Examples 3-6); format: in vivo, cross-bred beef cows; conditions: for DNA, % Increase, (A-B)/B / DNA, Mean Increase (A-B) / Dry Fat-Free Weight, % Increase, (A-B)/B / Dry Fat-Free Weight, Mean Increase (A-B) / Dry Weight, % Increase, (A-B)/B / Dry Weight, Mean Increase (A-B) / Wet Weight, % Increase, (A-B)/B / Wet Weight, Mean Increase (A-B): B = excipient only
Description: 24 pregnant, non-lactating, cross-bred beef cows within their last 40-80 days of gestation were randomly divided into 4 treatment groups with 6 animals in each group.

[4] = test system: pregnant Holstein heifers; assay: Intramammary infusion until parturition, milk production in first 105 days of lactation (Example 13); format: in vivo; conditions: one animal, 250 micrograms hEGF every third day only until 15 days before parturition
Protocol: 48 pregnant Holstein heifers within their last 40 days (approximately) of gestation were housed in a free-stall facility, fed a ration of alfalfa hay and pelleted concentrate, and administered 10 ml of an excipient into each quarter-udder by intramammary infusion through the streak canal every third day until parturition with the exception of one animal which was treated with human EGF as described in this Example only until 15 days before parturition. Infusions were carried out using a 3.2 centimeter long, approximately 12 gauge, blunt-tipped plastic teat infusion cannula obtained from Jorgensen Laboratories, Loveland, Colo. […] In each animal, all 4 quarter-udders received the same treatment. Each udder was sprayed with 70% ethanol and wiped dry prior to treatment and dipped with an iodine solution following treatment. At parturition, 4 animals from each treatment group were sacrificed and their mammary glands were removed for analysis. The other 8 animals from each treatment group were milked normally each a.m. and p.m. for the first 105 days of lactation.

[5] = B = opposite quarter, excipient only
[6] = Group 1: total of 125 micrograms hEGF
[7] = Group 1: total of 125 micrograms hEGF, B = excipient only
[8] = Group 2: total of 1.25 milligrams hEGF
[9] = Group 2: total of 1.25 milligrams hEGF, B = excipient only
[10] = Group 1: total of 125 micrograms hEGF in Freund's emulsion
[11] = Group 2: total of 125 micrograms hEGF in sesame emulsion
[12] = Group 3: total of 12.5 micrograms hEGF in sesame emulsion
[13] = Group 4: total of 1.25 milligrams hEGF in sesame emulsion

With “hEGF: human EGF from G. D. Searle & Co., prepared by expression of recombinant DNA, purity above 90%” the “DNA, Mean Increase (A-B)” value [1, 5] was 84.5 mg, the “Dry Fat-Free Weight, Mean Increase (A-B)” value [1, 5] was 4.9 g and the “Dry Weight, % Increase, (A-B)/B” value [1, 5] was 7.7%. The “Wet Weight, Mean Increase (A-B)” value [1, 5] was 32.6 g, the “DNA, Treatment Mean” value ([1]; day 14) was 794.5 mg and the “Dry Fat-Free Weight, Treatment Mean” value ([1]; day 14) was 63.2 g. The “Dry Weight, Treatment Mean” value ([1]; day 14) was 120.0 g, the “Wet Weight, Treatment Mean” value ([1]; day 14) was 389.9 g and the “DNA, Avg % Increase/Animal” value ([1]; vs excipient-only quarter) was 14.8%. For the same substance, the “Dry Fat-Free Weight, Avg % Increase/Animal” value ([1]; vs excipient-only quarter) was 16.1%, the “Wet Weight, Avg % Increase/Animal” value ([1]; vs excipient-only quarter) was 12.9% and the “DNA, Treatment Mean” value [2, 6] was 396.9 mg. The “Dry Fat-Free Weight, Treatment Mean” value [2, 6] was 52.8 g, the “Dry Weight, Treatment Mean” value [2, 6] was 113.0 g and the “Wet Weight, Treatment Mean” value [2, 6] was 363.0 g. For the same substance, the “DNA, % Increase, (A-B)/B” value [2, 7] was 10.6%, the “DNA, Mean Increase (A-B)” value [2, 7] was 38.0 mg and the “Dry Fat-Free Weight, % Increase, (A-B)/B” value [2, 7] was 4.1%. The “Dry Fat-Free Weight, Mean Increase (A-B)” value [2, 7] was 2.1 g, the “Dry Weight, % Increase, (A-B)/B” value [2, 7] was 3.0% and the “Dry Weight, Mean Increase (A-B)” value [2, 7] was 3.3 g. For the same substance, the “Wet Weight, % Increase, (A-B)/B” value [2, 7] was 1.5%, the “DNA, Treatment Mean” value [2, 8] was 344.0 mg and the “Dry Fat-Free Weight, Treatment Mean” value [2, 8] was 63.8 g. For the same substance, the “Wet Weight, Treatment Mean” value [2, 8] was 392.5 g, the “Dry Fat-Free Weight, % Increase, (A-B)/B” value [2, 9] was 3.9% and the “Dry Fat-Free Weight, Mean Increase (A-B)” value [2, 9] was 2.4 g. The “Dry Weight, % Increase, (A-B)/B” value [2, 9] was 5.3%, the “Dry Weight, Mean Increase (A-B)” value [2, 9] was 6.3 g and the “Wet Weight, % Increase, (A-B)/B” value [2, 9] was 1.1%. For the same substance, the “Wet Weight, Mean Increase (A-B)” value [2, 9] was 4.3 g, the “DNA, Avg % Increase/Animal” value [3, 10] was 23.0% and the “DNA, Treatment Mean” value [3, 10] was 723.0 mg. The “Dry Fat-Free Weight, Avg % Increase/Animal” value [3, 10] was 8.3%, the “Dry Fat-Free Weight, Treatment Mean” value [3, 10] was 60.3 g and the “Dry Weight, Treatment Mean” value [3, 10] was 107.2 g. The “Wet Weight, Treatment Mean” value [3, 10] was 364.9 g, the “DNA, % Increase, (A-B)/B” value [3, 10] was 14.9% and the “DNA, Mean Increase (A-B)” value [3, 10] was 94.0 mg. The “Dry Fat-Free Weight, % Increase, (A-B)/B” value [3, 10] was 6.2%, the “Dry Fat-Free Weight, Mean Increase (A-B)” value [3, 10] was 3.5 g and the “Dry Weight, % Increase, (A-B)/B” value [3, 10] was 6.1%. For the same substance, the “Dry Weight, Mean Increase (A-B)” value [3, 10] was 6.2 g, the “Wet Weight, % Increase, (A-B)/B” value [3, 10] was 4.4% and the “Wet Weight, Mean Increase (A-B)” value [3, 10] was 15.4 g. The “DNA, Avg % Increase/Animal” value [3, 11] was 70.0%, the “DNA, Treatment Mean” value [3, 11] was 995.0 mg and the “Dry Fat-Free Weight, Avg % Increase/Animal” value [3, 11] was 15.9%. The “Dry Fat-Free Weight, Treatment Mean” value [3, 11] was 71.0 g, the “Dry Weight, Avg % Increase/Animal” value [3, 11] was 20.2% and the “Wet Weight, Avg % Increase/Animal” value [3, 11] was 10.4%. The “Wet Weight, Treatment Mean” value [3, 11] was 370.2 g, the “DNA, % Increase, (A-B)/B” value [3, 11] was 41.5% and the “DNA, Mean Increase (A-B)” value [3, 11] was 292.0 mg. For the same substance, the “Dry Fat-Free Weight, % Increase, (A-B)/B” value [3, 11] was 3.2%, the “Dry Fat-Free Weight, Mean Increase (A-B)” value [3, 11] was 2.2 g and the “Dry Weight, % Increase, (A-B)/B” value [3, 11] was 9.9%. The “Dry Weight, Mean Increase (A-B)” value [3, 11] was 11.0 g, the “Wet Weight, % Increase, (A-B)/B” value [3, 11] was 3.9% and the “Wet Weight, Mean Increase (A-B)” value [3, 11] was 14.0 g. The “DNA, Treatment Mean” value [3, 12] was 867.6 mg, the “Dry Fat-Free Weight, Avg % Increase/Animal” value [3, 12] was 16.3% and the “Dry Fat-Free Weight, Treatment Mean” value [3, 12] was 79.4 g. For the same substance, the “Dry Weight, Avg % Increase/Animal” value [3, 12] was 7.8%, the “Dry Weight, Treatment Mean” value [3, 12] was 132.4 g and the “Wet Weight, Avg % Increase/Animal” value [3, 12] was 0.6%. For the same substance, the “Wet Weight, Treatment Mean” value [3, 12] was 397.8 g, the “Dry Fat-Free Weight, Mean Increase (A-B)” value [3, 12] was 6.7 g and the “Dry Weight, % Increase, (A-B)/B” value [3, 12] was 4.2%. For the same substance, the “Dry Weight, Mean Increase (A-B)” value [3, 12] was 5.4 g, the “DNA, Avg % Increase/Animal” value [3, 13] was 1.6% and the “DNA, Treatment Mean” value [3, 13] was 733.2 mg. The “Dry Fat-Free Weight, Treatment Mean” value [3, 13] was 81.7 g, the “Dry Weight, Treatment Mean” value [3, 13] was 131.5 g and the “Wet Weight, Avg % Increase/Animal” value [3, 13] was 9.9%. The “Wet Weight, Treatment Mean” value [3, 13] was 391.9 g, the “DNA, % Increase, (A-B)/B” value [3, 13] was 0.5% and the “DNA, Mean Increase (A-B)” value [3, 13] was 4.0 mg. The “Dry Fat-Free Weight, Mean Increase (A-B)” value [3, 13] was 6.6 g, the “Dry Weight, Mean Increase (A-B)” value [3, 13] was 13.6 g and the “Wet Weight, Mean Increase (A-B)” value [3, 13] was 31.7 g. The “Average milk production more than average of the 8 control cows” value [4] was 9.6 kg milk/day and the “Average milk production more than average of the 8 control cows, percent” value [4] was 34.8%.
